Entries after “also recorded” stand apart in the source; their conditions may differ.

Holding throughout (format): cell-based, human
The test system of one assay is KG1a cells. Put plainly: RT-PCR of stem/progenitor and maturation markers in KG1a cells. The following applies: 7 days of treatment. How it is done:
Total RNA was extracted from cultured human cells using the Rneasy mini kit (Quiagen) and following the manufacturer's instructions. 3 μg of RNA was used in subsequent reverse transcription reactions. The RNA was mixed with a poly T15 oligo to 5 microgrammes/ml and heated to 75° C. for 5 minutes. After cooling on ice, the following additional reagents were added; dNTPs to 0.4 mM, RNase OUT (Promega) to 1.6 U/μl, Moloney Murine Leukemia Virus Reverse Transcriptase (M-MLRvT) RnaseH— point mutant (Promega) to 8 U/μl and the appropriate buffer (supplied by the manufacturer) to x1 concentration. The mixture was incubated for one hour at 37° C., heated to 70° C. for two minutes and cooled on ice.
PCR reactions were all performed in a total volume of 40 μl. For each we used 1 μl of the M-MLRvT reaction (as described above), 0.2 nmols of each primer and 20 microliters of Redimix pre-mixed PCR components (Sigma). All reactions were cycled at 94° C. for 30 seconds, 55° C. for 30 seconds and 72° C. for 60 seconds. 30 cycles were used for all primer sets except those for beta-actin, for which 23 cycles were used.

Assay [1] deals with PBX1, 2 and 3 association with HOX proteins. Nature of the assay: Cross-linking and Western blot of PBX proteins in KG1a cells (Example 2). The following applies: 24 hours, 1 μM peptide, EDC cross-linking. The method, then:
HXP and control peptides were as described in Example 1. KG1a cells were grown as described in Example 1. KG1a cells were cultured for 24 hours without treatment, or in the presence of 1 μM HXP peptide or control peptide. The cells were harvested and lysed. One aliquot of the cells was subject to cross-linking. Frozen cells were lysed using standard techniques and […] of lysate was incubated for 30 minutes at room temperature in 4 mM 1-ethyl-3-[3-(dimethyl-amino)propyl]carbodimide (EDC), 4 mM sulpho-NHS, 20 mM HEPES (pH 7.5), 5 mM MgCl2, and 0.03% (w/v) […] to cross-link non-covalently associated proteins. The reaction was stopped by the addition of ammonium acetate to a final concentration of 50 mM. The other aliquot was frozen without cross-linking.
Proteins were extracted from the cells of both aliquots by standard techniques and separated by gel electrophoresis. The gels were probed by Western blot with an antibody raised against PBX1, 2 and 3 (sc-888, Santa Cruz Inc. USA) or an anti-beta actin antibody (sc-1615, Santa Cruz Inc. USA).

For another assay, the system named is PBX/HOX dimers. Put plainly: Western blotting of PBX and PBX/HOX dimers in CD133+ cells (Example 3). The settings on record: 20 μg/ml, EDC cross-linking. How it is done:
(§1) CD133+ cells (another name for AC133+ cells) were seeded in duplicate at 4×10^4 cells/ml in IMDM (Life Technologies), 10% FCS (Sigma Aldrich) and gentamycin (50 μg/ml Life Technologies) and Thrombopoietin (TPO) 10 ng/ml, Flt3-Ligand (FL) 50 ng/ml & c-KitL (K) 20 ng/ml), all obtained from R and D systems Ltd., UK. (Forraz et al., 2002). The HXP peptide (N-term: WYPWMKKHHRQIKIWFQNRRMKWKK: C-term; Eurogentec, Belgium) and control CXP peptide (N-term: WCCLADRHGRQIKIWFQNRRMKWKK: C-term; Eurogentec, Belgium) were added to culture medium at a concentration of 20 μg/ml. To withdraw peptides from culture, cells were washed twice in IMDM or RPMI and reseeded at prewash cell densities. Primary cells were cultured for 3 weeks at 37° C., 5% CO2 in humidified atmosphere and enumerated by a […] exclusion method with a heamocytometer.
Protein was extracted from HXP-treated or CXP-treated CD133+ cells (20 μg/ml). C-20 antibody that recognises all three human PBX gene proteins (sc-888, Santa Cruz Biotechnology Inc., USA; Monica et al., 1991). Protein cross linking was performed with 2 mM 1-ethyl-3-[3-(dimethylamino)propyl]carbodiimide (EDC) (Pierce Biotechnology, USA), in cell lysates diluted 1:10 in conjugation buffer (0.1M 2-[N-morpholino]ethane sulphonic acid, pH 5). […]
For orientation: Immunoblotting shows a protein as a band on a membrane.

The subject of assay [2] is CD133+ cells. Put plainly: CD133+ cell proliferation in cytokine supplemented liquid culture over 18 days. The method, then:
as §1

Assay [3] relates to CD133+ cells. Put plainly: RT-PCR of HOX-PBX target genes in CD133+ cells. How it is done: Total RNA was isolated from liquid nitrogen snap-frozen cells using RNeasy Mini Kit protocol (Qiagen, Crawley, UK). 50 μl reverse transcription reactions using 1 μg of RNA per reaction heated at 75° C. cDNA with 1 μg of oligo-dT for 10 mins. Samples were cooled on ice and mixed with 200 units of M-MLV reverse transcriptase (Promega, Southampton, UK) in its associated buffer, 400 μM of dNTPs (Promega), and 40 units of RNAseout (Invitrogen, Paisley, UK). Samples were then incubated at 37° C. for one hour and finally heated at 75° C. for 5 mins. PCR reactions (35 cycles, 94° C. 30 sec, 55° C. 30 sec, 72° C. 1 min) were carried out in a 20 μl reaction using JumpStart ReadyMix REDTaq DNA polymerase (Sigma-Aldrich) using an identical amount of cDNA per reaction with 1 μM of forward and reverse primers.

For “WYPWMKKHHRQIKIWFQNRRMKWKK [HXP peptide]”, in the assay with KG1a cells, the “markers of maturation/differentiation (CD38)” value is “elevated”; the “markers of stem/progenitor cells (AC133, CD34, HOXB4, HOXB8 and HOXA9)” value is “diminished”. In assay [1], the “association of PBX proteins with other proteins (HOX proteins)” value is reported as “none of the PBX isoforms from the HXP peptide treated cells were associated with other proteins”. In the assay with PBX/HOX dimers, the “binding of PBX to other proteins / formation of PBX/HOX dimers” value is given as “prevented binding of PBX to other proteins; also recorded: distrupted the formation of PBX/HOX dimers”. The “inhibition of CD133+ cell growth compared to CXP peptide-treated cells” value with CD133+ cells [2] (day 18, 20 μg/ml, average, p<0.001) stood at 3.7 fold. The “CD133+ cell proliferation after withdrawal of HXP peptide” value in the assay with CD133+ cells [2] (withdrawal at day 7, compared to 18 day-HXP peptide treated cells, p<0.01) is recorded as “resumption of cell proliferation”. For the same substance, in the assay on CD133+ cells [3] (18 days), the CD38 gene expression result is given as “up-regulated”; the “expression of HOX-PBX target genes (CDC25, CDK2, N-Ras, Ras-like GTP binding protein, MMP19, MMP1, MAPK, RAB27A, Bak2, p53, CTCF, EIF4E, CD133, CD34, TERT, HOX B4, B8 and A9)” value is listed as “significantly down regulated”. Also, in the assay with CD133+ cells [3] (withdrawal at day 7), the “expression of HOX-PBX target genes after withdrawing HXP peptide” value was “up-regulation of all of these genes with the exception of MAPK”.

Source of the values: patent US7728105B2, “Peptides impairing PBX dependent gene regulation” (St. George's Hospital Medical School, priority 2002, dated 2010).
